Test results from patent US10517910B2 (priority 2015, dated 2019).
Where a name gives a salt, the structure may show the parent alone.

Tested on: HuH-7 cells infected with JX-594 virus
Type: cell-based

`COc1cccc2c1C(=O)c1c(O)c3c(c(O)c1C2=O)C[C@@](O)(C(=O)CO)C[C@@H]3O[C@H]1C[C@H](N)[C@H](O)[C@H](C)O1` [Adriamicyn, Doxorubicin hydrochloride] was tested, and the “JX-594 viral replication in vitro” value was “decrease” and the viral output was “decreased”.
